# Measurements: US20190054117A1, “DIMERIZATION SWITCHES AND USES THEREOF” (priority 2014, published 2019)
# Biological target: biotinylated FKBP in the presence of everolimus (RAD001)
# Assay: EC50 direct binding assay (AlphaLISA): FLAG FRB protein and biotinylated FKBP with serially diluted everolimus
# Conditions: 30 nM FLAG-tagged FRB, 30 nM biotinylated FKBP; everolimus serial diluted 1:3 from 600 nM
# Experimental: In a direct binding assay, unlabeled candidate mutant FRB is incubated in solution with tagged wild-type FKBP in the presence of the dimerization molecule, e.g., under conditions suitable for binding of FRB to the dimerization molecule and dimerization of FRB and FKBP. Tagged FKBP can be removed from the reaction by affinity purification; candidate mutant FRB that is able to bind the dimerization molecule and dimerize with the tagged FKBP will also be removed. […] EC50 values for direct binding affinity can then be calculated using methods known in the art.
# FRB mutations were also ranked in an alternative assay format. Briefly, FRB proteins incorporating single and double mutations (SEQ ID NO: 54-58) were produced as FLAG tagged constructs in E. coli as described previously. 30 nM (final) of biotinylated FKBP (SEQ ID NO: 59) and each FLAG FRB protein were combined in the presence of everolimus serial diluted 1:3 from a starting final concentration of 600 nM into a 96 well ½ surface flat-bottom plate (PerkinElmer) and incubated for one hour at room temperature. All dilutions were made in 1× AlphaLISA Immunoassay buffer (PerkinElmer). Anti-Flag acceptor beads (PerkinElmer) were added at 10 ug/ml final concentration and incubated for one hour at room temperature. Streptavidin donor beads (PerkinElmer), were then added at a final concentration of 40 ug/ml and the plate was protected from light and incubated for 30 minutes at room temperature. The plate was then read on the PerkinElmer EnVision Multiplate reader equipped with the Alpha Module using excitation of 680 nm and a 570 nm Emission filter.
# Chain of biotinylated FKBP in the presence of everolimus (RAD001) (P62942 2-108 limits assumed): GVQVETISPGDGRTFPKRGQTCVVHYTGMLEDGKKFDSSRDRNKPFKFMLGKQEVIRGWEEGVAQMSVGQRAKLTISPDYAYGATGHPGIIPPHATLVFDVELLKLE
row,EC50 [nM],Substance
1,2.46,E2032I: mutant FRB derived switch domain with E2032I; His-tagged (competition) or His-FLAG-tagged (direct assay)
2,2.15,E2032L: mutant FRB derived switch domain with E2032L; His-tagged (competition) or His-FLAG-tagged (direct assay)
3,1.44,T2098L: mutant FRB derived switch domain with T2098L; His-tagged (competition) or His-FLAG-tagged (direct assay)
4,3.9,"Wild type FRB (1): wild type FRB domain of FRAP/mTOR (residues 2021-2113); His-tagged in competition assay, His-FLAG-tagged in direct assay [reference compound]"
